Data as given in US9181266B2, “2-piperidin-1-yl-acetamide compounds for use as tankyrase inhibitors” (NOVARTIS AG, priority 2011, dated 2015).

Key:
[1] = tested on: Axin2 protein in SW480 cells; assay: Cellular ELISA assay of Axin2 protein stabilization; assay type: cell-based; settings: Homo sapiens, 24 hrs, read-out: Axin AC50
Procedure: Cellular ELISA Assay to Determine Compound Effect on Stabilizing the Axin2 Protein Compound activity in stabilizing the Axin2 protein was measured by Sandwich Enzyme-Linked Immuosorbent (ELISA) assay in the colorectal cell line SW480. 30,000 SW480 cells were seeded per well in 96-well plate and incubated overnight prior to compound treatment. […] Cells were then washed with 100 μL of cold Phosphate Buffer Saline (PBS), and lysed in 125 μl of cold 1× lysis buffer (Cell Signaling Technology, 9803) supplemented with Protease inhibitor (Roche, 11836170) and Phosphatase inhibitors (Sigma, P2850, P5726). For the ELISA assay, anti Axin-2 capture antibody (Strategic Diagnostics) antibody was diluted to a concentration of 1 μg/ml (1:1000) in Carbonate Coating buffer, pH 9.2 (Sigma, C3041-50CAP). […], of the diluted anti Axin-2 capture antibody per well was then used to coat the 96-well ELISA plate (Thermo Electron Corp., MicroLite 1 flat bottom plate #7571) overnight at 4° C. […] After blocking, plates were then washed three times with 300 μl/well of wash solution. 100 μL of prepared SW480 cell lysate was then added to each well and incubated at room temperature for 2 hours while shaking gently. After washing, 100 μL of Biotinylated anti-Axin2 antibody (CST, 2151) was added to each well and incubated room temperature for 2 hours. 100 μL of Streptavidin-HRP (R&D systems, DY998) diluted 1:200 in 1% BSA/PBS was then added in each well and incubate for 30 mins at R/T in the dark.

[2] = biological target: human tankyrase 1 PARP catalytic domain, TNKS1P (Homo sapiens (Human), UniProt O95271); assay: TNKS1 autoparsylation assay (LC/MS detection of nicotinamide); settings: read-out: TNKS1 AP IC50, 20 nM enzyme, 250 μM β-NAD+, 60 min
Sequence of human tankyrase 1 PARP catalytic domain, TNKS1P (O95271 1112-1317): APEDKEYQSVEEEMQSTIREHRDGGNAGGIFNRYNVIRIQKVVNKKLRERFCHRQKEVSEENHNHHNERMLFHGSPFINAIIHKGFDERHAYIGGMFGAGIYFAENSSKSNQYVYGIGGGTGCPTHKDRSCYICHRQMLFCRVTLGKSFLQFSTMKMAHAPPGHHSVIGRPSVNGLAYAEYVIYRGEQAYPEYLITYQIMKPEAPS

[3] = tested on: Non-small lung cancer ABC-1 cells; assay: Cellular proliferation assay (CellTiter-Glo); assay type: cell-based; settings: Homo sapiens, 72 h; ABC-1 cells, 3 days of compound treatment; read-out: ABC-1 IC50
Procedure: Cellular Proliferation Assay to Determine Compound Inhibition of Cancer Cell Growth
Viable cells were measured after 3 days of compound treatment using the CellTiter-Glo assay (Promega, G7570). Assay was performed following the manufacture protocol.

[4] = biological target: tankyrase 2 protein PARP domain, TNKS2P (Homo sapiens (Human), UniProt Q9H2K2); assay: TNKS2 autoparsylation assay (LC/MS detection of nicotinamide); settings: read-out: TNKS2 AP IC50, 20 nM enzyme, 250 μM β-NAD+, 60 min
Sequence of tankyrase 2 protein PARP domain, TNKS2P (Q9H2K2 959-1164): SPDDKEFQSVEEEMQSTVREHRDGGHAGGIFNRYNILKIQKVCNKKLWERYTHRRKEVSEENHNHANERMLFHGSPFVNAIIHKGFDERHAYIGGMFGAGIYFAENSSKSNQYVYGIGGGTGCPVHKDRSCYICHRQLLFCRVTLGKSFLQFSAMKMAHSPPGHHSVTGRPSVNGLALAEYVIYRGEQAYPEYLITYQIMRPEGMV
Procedure: Biochemical Assay to Determine Compound Inhibition of TNKS Enzyme Activity
The autoparsylation activity of the TNKS 1/2 or PARP1/2 enzymes was measured by the liquid chromatography-mass spectrometry (LC/MS) detection of nicotinamide as readout. Compound activity in inhibiting the TNKS and PARP autoparsylation was evaluated by IC50 measurements. […] For the background control wells, 10 μL of the 5× quenching solution per well was added prior to the addition of β-NAD^+. The % Inhibition was calculated as: (Control−Sample)/(Control−Background)*100.

[5] = tested on: Wnt ligand-induced signaling in HEK293 cells; assay: Wnt-responsive Super-TOpFlash (STF) luciferase reporter gene assay; assay type: cell-based; settings: Homo sapiens, Wnt3A condition medium
Procedure: Cellular Reporter Gene Assay to Determine Compound Inhibition of Wnt Signaling Activity
Compound activity in inhibiting Wnt ligand-induced signaling was measured using a Wnt-responsive Super-TOpFlash (STF) luciferase reporter gene assay in HEK293 cells. On day 1 of the assay, cells were plated at a density of 8000 cells per well of 384-well plate in 25 μl medium containing 5% fetal bovine serum (FBS). On the second day, […] condition medium (CM) produced from mouse L cells was added to the cells to induce Wnt signaling, followed by addition of 5 μL of compounds each well in 10-point serial dilution. On the third day, the luciferase activity was measured by the Bright-Glo™ Luciferase Assay System following manufacture's protocol (Promega, E2620). The Inhibition was calculated as: (Maximum Wnt-induced signaling−Sample)/(Maximum Wnt-induced signaling−Background)*100. “Maximum Wnt-induced signaling” is the STF signal level induced by 20% Wnt3A CM without compound; and “Background” is the STF signal level without the addition of Wnt3A CM or compound.

| IC50 [2] [nM] | IC50 [3] [nM] | IC50 [4] [nM] | SMILES | AC50 [1] [nM] | IC50 [5] [nM] |
| --- | --- | --- | --- | --- | --- |
| 64 ± 8 | 1050 ± 390 | – | O=C(CN1CCC(C(=O)c2ccc(F)cc2)CC1)NCc1nc2c(c(=O)[nH]1)COCC2 [Example 1, 2-(4-(4-Fluorobenzoyl)piperidin-1-yl)-N-((4-oxo-4,5,7,8-tetrahydro-3H-pyrano[4,3-d]pyrimidin-2-yl)methyl)acetamide] | 880 ± 210 | – |
| 15.5 ± 3.5 | 32 ± 4 | – | COc1ccc(C(=O)C2CCN(CC(=O)N(Cc3nc4c(c(=O)[nH]3)COCC4)CC3CC3)CC2)cc1 [Example 5, N-Cyclopropylmethyl-2-[4-(4-methoxy-benzoyl)-piperidin-1-yl]-N-(4-oxo-3,5,7,8-tetrahydro-4H-pyrano[4,3-d]pyrimidin-2-ylmethyl)-acetamide] | 60 ± 60 | – |
| 15.4 ± 2.3 | 40 | – | O=C(c1ccc(F)cc1)C1CCN(CC(=O)N(Cc2nc3c(c(=O)[nH]2)COCC3)Cc2cccs2)CC1 [Example 13, 2-(4-(4-Fluorobenzoyl)piperidin-1-yl)-N-((4-oxo-4,5,7,8-tetrahydro-3H-pyrano[4,3-d]pyrimidin-2-yl)methyl)-N-(thiophen-2-ylmethyl)acetamide] | 26 ± 8 | – |
| 845 ± 12 | – | 206 ± 2 | O=C(c1ccc(F)cc1)C1CCN(CC(=O)N(Cc2ccncc2)Cc2nc3c(c(=O)[nH]2)COCC3)CC1 [Example 20, 2-(4-(4-Fluorobenzoyl)piperidin-1-yl)-N-((4-oxo-4,5,7,8-tetrahydro-3H-pyrano[4,3-d]pyrimidin-2-yl)methyl)-N-(pyridin-4-ylmethyl)acetamide] | – | 2390 ± 250 |
| 214 ± 2 | – | 42 ± 1 | O=C(c1ccc(F)cc1)C1CCN(CC(=O)N(Cc2cccnc2)Cc2nc3c(c(=O)[nH]2)COCC3)CC1 [Example 21, 2-(4-(4-Fluorobenzoyl)piperidin-1-yl)-N-((4-oxo-4,5,7,8-tetrahydro-3H-pyrano[4,3-d]pyrimidin-2-yl)methyl)-N-(pyridin-3-ylmethyl)acetamide] | – | 460 ± 280 |
| 120 ± 2 | 540 ± 280 | – | O=C(c1ccc(F)cc1)C1CCN(CC(=O)N(Cc2ccccn2)Cc2nc3c(c(=O)[nH]2)COCC3)CC1 [Example 22, 2-(4-(4-Fluorobenzoyl)piperidin-1-yl)-N-((4-oxo-4,5,7,8-tetrahydro-3H-pyrano[4,3-d]pyrimidin-2-yl)methyl)-N-(pyridin-2-ylmethyl)acetamide] | 360 ± 190 | – |
| 70 ± 7 | 545 | – | CC(C)CN(Cc1nc2c(c(=O)[nH]1)COCC2)C(=O)CN1CCC(C(=O)c2ccc(F)cc2)CC1 [Example 26, 2-(4-(4-Fluorobenzoyl)piperidin-1-yl)-N-isobutyl-N-((4-oxo-4,5,7,8-tetrahydro-3H-pyrano[4,3-d]pyrimidin-2-yl)methyl)acetamide] | 473 ± 36 | – |
| 241 ± 30 | – | – | CN(Cc1nc2c(c(=O)[nH]1)COCC2)C(=O)CN1CCC(C(=O)c2ccc(F)cc2)CC1 [Example 30] | 6000 ± 500 | – |
| 46 ± 1 | – | – | CCCN(Cc1nc2c(c(=O)[nH]1)COCC2)C(=O)CN1CCC(C(=O)c2ccc(F)cc2)CC1 [Example 34, 2-(4-(4-Fluorobenzoyl)piperidin-1-yl)-N-((4-oxo-4,5,7,8-tetrahydro-3H-pyrano[4,3-d]pyrimidin-2-yl)methyl)-N-propylacetamide] | 1010 ± 70 | – |
| 256 ± 4 | – | 68 ± 1 | C[C@@H](c1ccc(F)cc1)N(Cc1nc2c(c(=O)[nH]1)COCC2)C(=O)CN1CCC(C(=O)c2ccc(F)cc2)CC1 [Example 35, (S)-2-(4-(4-Fluorobenzoyl)piperidin-1-yl)-N-(1-(4-fluorophenyl)ethyl)-N-((4-oxo-4,5,7,8-tetrahydro-3H-pyrano[4,3-d]pyrimidin-2-yl)methyl)acetamide] | – | 179 ± 20 |
| 561 ± 49 | – | 66 ± 2 | O=C(c1ccc(F)cc1)C1CCN(CC(=O)N(Cc2nc3c(c(=O)[nH]2)COCC3)Cc2ccc(S(=O)(=O)N3CCOCC3)s2)CC1 [Example 47, 2-[4-(4-Fluoro-benzoyl)-piperidin-1-yl]-N-[5-(morpholine-4-sulfonyl)-thiophen-2-ylmethyl]-N-(4-oxo-3,5,7,8-tetrahydro-4H-pyrano[4,3-d]pyrimidin-2-ylmethyl)-acetamide] | 5000 ± 2300 | 1830 ± 390 |
| 548 ± 39 | 641 | 89 ± 3 | COc1ccc(-c2nnc(C3CCN(CC(=O)NCc4nc5c(c(=O)[nH]4)COCC5)CC3)o2)cc1 [Example 56, 2-{4-[5-(4-Methoxy-phenyl)-[1,3,4]oxadiazol-2-yl]-piperidin-1-yl}-N-(4-oxo-3,5,7,8-tetrahydro-4H-pyrano[4,3-d]pyrimidin-2-ylmethyl)-acetamide] | – | 207 ± 21 |
| 1210 ± 100 | 649 | 270 ± 10 | O=C(CN1CCC(c2n[nH]c3cc(F)ccc23)CC1)NCc1nc2c(c(=O)[nH]1)COCC2 [Example 57, 2-[4-(6-Fluoro-1H-indazol-3-yl)-piperidin-1-yl]-N-(4-oxo-3,5,7,8-tetrahydro-4H-pyrano[4,3-d]pyrimidin-2-ylmethyl)acetamide] | – | 207 ± 35 |
| 1490 ± 50 | > 10000 | 311 ± 39 | COc1ccc2c(C3CCN(CC(=O)NCc4nc5c(c(=O)[nH]4)COCC5)CC3)n[nH]c2c1 [Example 58, 2-[4-(6-Methoxy-1H-indazol-3-yl)-piperidin-1-yl]-N-(4-oxo-3,5,7,8-tetrahydro-4H-pyrano[4,3-c]pyrimidin-2-ylmethyl)-acetamide] | – | 4500 ± 400 |
| 2250 ± 23 | 8170 | 188 ± 16 | O=C(CN1CCC(n2cc(-c3ccccc3)cn2)CC1)NCc1nc2c(c(=O)[nH]1)COCC2 [Example 59, N-(4-Oxo-3,5,7,8-tetrahydro-4H-pyrano[4,3-d]pyrimidin-2-ylmethyl)-2-[4-(4-phenyl-pyrazol-1-yl)-piperidin-1-yl]-acetamide] | – | 3940 ± 120 |
| 3800 ± 100 | 5850 | 386 ± 7 | COc1ccc(-c2cnn(C3CCN(CC(=O)NCc4nc5c(c(=O)[nH]4)COCC5)CC3)c2)cc1 [Example 60, 2-{4-[4-(4-Methoxy-phenyl)-pyrazol-1-yl]-piperidin-1-yl}-N-(4-oxo-3,5,7,8-tetrahydro-4H-pyrano[4,3-d]pyrimidin-2-ylmethyl)-acetamide] | – | 1100 ± 110 |
| 73 ± 5 | 6050 | 17 ± 1 | O=C(c1ccc(C(F)(F)F)cc1)C1CCN(CC(=O)N(Cc2nc3c(c(=O)[nH]2)COCC3)CC(F)F)CC1 [Example 75, N-(2,2-Difluoro-ethyl)-N-(4-oxo-3,5,7,8-tetrahydro-4H-pyrano[4,3-d]pyrimidin-2-ylmethyl)-2-[4-(4-trifluoromethyl-benzoyl)-piperidin-1-yl]-acetamide] | – | 290 ± 130 |
| > 19000 | – | 31200 | COc1ccc2c(c1)CCCN2C(=O)C1CCN(CC(=O)NCc2nc3c(c(=O)[nH]2)COCC3)CC1 [Example 80, 2-(4-(6-Methoxy-1,2,3,4-tetrahydroquinoline-1-carbonyl)piperidin-1-yl)-N-((4-oxo-4,5,7,8-tetrahydro-3H-pyrano[4,3-d]pyrimidin-2-yl)methyl)acetamide] | – | 6400 ± 1100 |
| 761 ± 18 | – | 244 ± 24 | O=C(CN1CCC(C(=O)N2CCc3c(Cl)cccc3C2)CC1)NCc1nc2c(c(=O)[nH]1)COCC2 [Example 81, 2-(4-(5-Chloro-1,2,3,4-tetrahydroisoquinoline-2-carbonyl)piperidin-1-yl)-N-((4-oxo-4,5,7,8-tetrahydro-3H-pyrano[4,3-d]pyrimidin-2-yl)methyl)acetamide] | – | > 10000 |
